Source: article PMC11614538, “The proline-rich antimicrobial peptide B7-005: low bacterial resistance, safe for human cells and effective in zebrafish embryo bacteraemia model” (Open Biology, 2024)
≈ marks a conversion by molar mass, not a printed value. Residues, ends and D or L forms follow the SMILES beside them.

Experiments:
E. coli ATCC 25922 = test: microbe, parasite or virus in culture; conditions: for MIC after 14th passage: 14 daily passages at one-half MIC, 18 h; for MIC: Escherichia coli, ATCC25922
Procedure: Escherichia coli ATCC 25922 was purchased from the American Type Culture Collection (ATCC) (Manassas, Virginia, USA) and stored at −80°C as glycerol stock until use. Bacterial cultures were grown overnight in sterile Müller–Hinton broth (MHB) (Difco Inc.) at 37°C under agitation (140 r.p.m.). The next day, the cultures were diluted 1 : 30 in new MHB and incubated as described above for about 2 h (mean logarithmic phase) until they reached an optical density at 600 nm of about 0.3 and then diluted in fresh MHB to the desired concentrations.
The effects of human serum on the antimicrobial activity of B7-005 were assessed by performing a minimum inhibitory concentration (MIC) assay with some modifications. Non-heat-inactivated human serum (Merk Life Science S.r.l., USA) was diluted to 50%, 40%, 30%, 25%, and 20% (v/v) in MHB and the solutions were aliquoted into the wells of a round-bottomed 96-well microtitre plate (Sarstedt, Milan, Italy). Samples with no serum were used for comparison. B7-005 was diluted in MHB added with the proper amount of serum to a concentration of 128 μM, added to the first column of the plate and serially diluted twofold in MHB, added with the proper amount of serum, in the subsequent wells in a final volume of 50 μl. Then 50 μl of a mid-log suspension of 5 × 10^5 CFU ml^−1 E. coli ATCC 25922 cells prepared in MHB added with the proper amount of serum was added to each well of the plate, halving the final concentration of bacteria and peptide. The plate was incubated at 37°C for 18 h. The MIC value was calculated as the lowest concentration of the compound resulting in complete inhibition of visible bacterial growth. MIC values were determined by performing at least three independent experiments (n ≥ 3).
The resistance selection assay was performed by modifying a previously described method. First, the MIC values of each antimicrobial compound (PrAMP or antibiotic) against E. coli ATCC 25922 were determined and recorded as described above. Serial sub-culturing was started by harvesting bacterial cells growing at one-half MIC and inoculating them into fresh MHB. […] This inoculum was incubated o/n and subjected to another MIC test. After 18 h of incubation, the cells growing at one-half MIC were harvested and used for another similar MIC assay. The process was repeated for 7 or 14 daily passages.

[1] = tested on: zebrafish larvae infection model; conditions: simultaneous injection of pathogens and peptide versus post-infection administration; ref [40]; cited from earlier work
Source text: In the current work, the infection of zebrafish larvae with E. coli and their treatment with B7-005 were strictly controlled performing them by microinjection in the Cuvier duct. […] To better ...

With `CC[C@H](C)[C@H](NC(=O)[C@H](CCCNC(=N)N)NC(=O)[C@@H](N)CCCNC(=N)N)C(=O)N[C@@H](CCCNC(=N)N)C(=O)N1CCC[C@H]1C(=O)N[C@@H](CCCNC(=N)N)C(=O)N1CCC[C@H]1C(=O)N1CCC[C@H]1C(=O)N[C@@H](CCCNC(=N)N)C(=O)N[C@@H](CC(C)C)C(=O)N1CCC[C@H]1C(=O)N[C@@H](CCCNC(=N)N)C(=O)N1CCC[C@H]1C(=O)N[C@@H](CCCNC(=N)N)C(=O)N1CCC[C@H]1C(=O)N[C@@H](CCCNC(=N)N)C(=O)O` [Bac7(1-16)] (H-RRIRPRPPRLPRPRPR-OH) the “MIC after 14th passage” value (E. coli ATCC 25922; MHB) was 128 µM (≈ 266 µg/mL).
With `CC[C@H](C)[C@H](NC(=O)[C@H](CCCNC(=N)N)NC(=O)[C@@H](N)CCCNC(=N)N)C(=O)N[C@@H](CCCNC(=N)N)C(=O)N1CCC[C@H]1C(=O)N[C@@H](CCCNC(=N)N)C(=O)N1CCC[C@H]1C(=O)N1CCC[C@H]1C(=O)N[C@@H](CCCNC(=N)N)C(=O)N[C@@H](CC(C)C)C(=O)N1CCC[C@H]1C(=O)N[C@@H](CCCNC(=N)N)C(=O)N1CCC[C@H]1C(=O)N[C@@H](CCCNC(=N)N)C(=O)N1CCC[C@H]1C(=O)N[C@@H](CCCNC(=N)N)C(=O)N1CCC[C@H]1C(=O)N[C@@H](CC(C)C)C(=O)N1CCC[C@H]1C(=O)N[C@@H](Cc1ccccc1)C(=O)N1CCC[C@H]1C(=O)N[C@@H](CCCNC(=N)N)C(=O)N1CCC[C@H]1C(=O)NCC(=O)N1CCC[C@H]1C(=O)N[C@@H](CCCNC(=N)N)C(=O)N1CCC[C@H]1C(=O)N[C@H](C(=O)N1CCC[C@H]1C(=O)N[C@@H](CCCNC(=N)N)C(=O)N1CCC[C@H]1C(=O)N[C@@H](CC(C)C)C(=O)N1CCC[C@H]1C(=O)N[C@@H](Cc1ccccc1)C(=O)N1CCC[C@H]1C(=O)O)[C@@H](C)CC` [Bac7(1-35)] (H-RRIRPRPPRLPRPRPRPLPFPRPGPRPIPRPLPFP-OH; N-terminus and C-terminus assumed) the “MIC after 14th passage” value (E. coli ATCC 25922; MHB) was 128 µM (≈ 539 µg/mL) and the “passage (cycle) after which MIC started to increase” value (E. coli ATCC 25922; serial passages at one-half MIC, MHB) was 5.
In the case of `O=C(N[C@H](CO)[C@H](O)c1ccc([N+](=O)[O-])cc1)C(Cl)Cl` [chloramphenicol], the MIC (E. coli ATCC 25922) was 1020 µM (≈ 331 µg/mL) and the “fold increase in MIC” value (E. coli ATCC 25922; after 8 passages at one-half MIC) was 64 fold.
For `CO[C@H]1/C=C/O[C@@]2(C)Oc3c(C)c(O)c4c(O)c(c(/C=N/N5CCN(C)CC5)c(O)c4c3C2=O)NC(=O)/C(C)=C\C=C\[C@H](C)[C@H](O)[C@@H](C)[C@@H](O)[C@@H](C)[C@H](OC(C)=O)[C@@H]1C` [rifampicin], the MIC (E. coli ATCC 25922) was 1020 µM (≈ 843 µg/mL) and the “fold increase in MIC” value (E. coli ATCC 25922; after 4 passages at one-half MIC) was 64 fold.
In the case of “Bac5: another PrAMP previously used in a zebrafish larvae infection model (RFRPPIRRPPIRPPFYPPFRPPIRPPIFPPIRPPFRPPLGPFP; Bactenecin 5; UniProt P19660 131-173, looked up)”, the “efficacy in zebrafish larvae infection model” value [1] is listed as “only effective when the pathogens and peptide were simultaneously injected”.
With colistin the “MIC during serial passaging” value (E. coli ATCC 25922; throughout the complete serial passaging process) was “remained substantially unchanged”.
